Experimental data published in PMC5441580, “GPR40 partial agonist MK-2305 lower fasting glucose in the Goto Kakizaki rat via suppression of endogenous glucose production” (PLoS ONE, 2017).
Several values for one entry are separate records, joined by “and”; a condition that tells them apart may be missing. Identical values can stand only once.

What was measured:
[1] = test system: perfused db/db mouse livers; test: isolated perfused liver study, 13C NMR, [2-13C] pyruvate; settings: data not shown
Protocol: To evaluate whether GPR40 partial agonist treatment produced a direct effect on hepatic glucose production, we performed isolated perfused liver studies with ^13C NMR spectroscopy in which GPR40 agonists were dosed directly to the liver ex vivo. Mouse livers were chosen instead of rat livers due to size restrictions of the perfused liver apparatus. […] A detailed description of the perfused liver technique can be found elsewhere. Briefly, db/db mice were anesthetized (Nembutal IP, 100 mg/kg), the portal vein was cannulated and tied off, and the liver was excised and perfused with a pre-oxygenated Krebs-bicarbonate buffered solution. The liver was then placed into a 20 mm NMR tube and the gluconeogenic substrate [2-^13C] pyruvate (10 mM) was added to the perfusate plus either MK-2305 (10 μM) or vehicle (0.1% DMSO). […] These NMR signals were then converted to absolute units (μmoles) by comparison to ^13C NMR spectra of standard solutions acquired under identical conditions. Additional correction factors were included for ^13C-glycogen and ^13C-glucose to account for the fact that position 2 in pyruvate can end up at position 1, 2, 5, or 6 in glucose/glycogen due to the fumarase and triose phosphate isomerase reactions. The slope of each signal versus time was then used to calculate the following fluxes: glucose production, glycogen synthesis, and lactate production.

rat GPR40 (FFAR1) = molecular target: T1, rat GPR40 (FFAR1) (Rattus norvegicus, UniProt Q8K3T4); test: IP1 functional assay, CHO cells stably expressing rat GPR40; assay type: cell-based; settings: representative curve Fig 1B
T1 construct: expressed in transfected cells
T1 sequence (Q8K3T4 whole entry): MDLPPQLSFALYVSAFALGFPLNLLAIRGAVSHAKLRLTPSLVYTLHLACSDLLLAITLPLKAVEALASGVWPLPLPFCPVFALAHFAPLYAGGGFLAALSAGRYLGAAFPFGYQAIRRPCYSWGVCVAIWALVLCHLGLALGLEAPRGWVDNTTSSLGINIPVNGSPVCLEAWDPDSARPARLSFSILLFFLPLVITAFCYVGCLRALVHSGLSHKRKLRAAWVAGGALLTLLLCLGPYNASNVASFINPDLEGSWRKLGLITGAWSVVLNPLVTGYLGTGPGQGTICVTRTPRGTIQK
Protocol: CHO Jump-IN cells stably expressing rat GPR40 or HEK293 Jump-IN cells stably expressing rat GPR120 were cultured in DMEM media supplemented with 10% dialyzed FBS, non-essential amino acids, penicillin/streptomycin, 10 μg/ml Blasticidin S HCL and 200 or 100 μg/ml Hygromycin B, respectively (Life Technologies). Cell stocks were maintained and grown in a sub-confluent state using standard cell culture procedures. The day before the experiment, the cells were harvested with non-enzymatic cell dissociation buffer and re-suspended in DMEM supplemented as described above at 0.15 million cells per ml. […] The seeded plates were incubated overnight at 37°C in a humidified environment.
On the day of the experiment, the growth media was removed from the assay plate by centrifugation using a BlueCatBio BlueWasher, protocol #21 “Light Dry” and 10 μl of IP1 stimulation buffer (prepared according to the Cisbio IP-one Tb HTRF kit) is added to each well. Test compounds were dissolved and serially diluted in DMSO as 200X the final assay concentration and 50 nl of the compound dilution was acoustically added to each well of the assay plates. The plates were then incubated for 60 minutes at room temperature and 10 μl of detection buffer (prepared according to the IP-one Tb HTRF kit) is added to each well of the assay plate. The plates were then incubated for one additional hour at room temperature. […] For each assay, a standard curve plate in which IP1 is titrated is also included. […] The % activation is then plotted versus the concentration of test compound and the dose response curve fitted to a standard 4-paramater non-linear regression model using a custom in-house developed software package. Maximal % activation and EC50 are then determined for each test compound.

diabetic humans = settings: clinical trials; cited from earlier work
GK rats [2] = test: GK rat chronic efficacy, compound in feed for 20 days; assay type: in vivo; settings: for Morning (fed) Blood Glucose: Rosi 10 mpk in feed
Protocol: At the start of the study, fed glucose was measured at 8 A.M., and animals were selected and sorted into treatment groups based on ambient glucose (n = 10/male GK group, n = 6/male WKY control group). […] Fed blood glucose, food intake, and body weights were determined on days 0, 1, 3, 7, and 14 of study at 8 A.M. On days 7 and 14, food was removed for 5 h and plasma glucose was measured. Percent inhibitions were calculated as the percent reduction of blood glucose from the average value for vehicle controls. On day 14, blood was collected from the tail vein (20 μl) after the morning glucose measurement and after 5 h fast from a subset of n = 3 rats per treatment group to determine the ambient and fasted exposure of the compounds in circulation. The blood was stored at 4°C in 0.1 M sodium monocitrate for subsequent analysis. Animals were then re-fed their respective diet treatments. On day 20 of treatment at 8 A.M., blood glucose was measured and then animals were euthanized via CO2 asphyxiation. Blood and liver tissue were sampled, processed, and stored at -80°C until analysis.
Plasma was analyzed for triglycerides, NEFA, and HbA1C using a P Modular Roche Clinical Chemistry analyzer. Liver triglycerides were extracted as described by Bligh and Dyer, and were measured using the Infinity triglyceride assay kit (Thermo Scientific, Rockford, IL). Plasma insulin levels were measured via EIA (Mesoscale Discovery ELISA Kit, Gaithersburg MD).

[3] = plasma exposure of the compounds on day 14 of the chronic study; assay type: in vivo, rat; settings: 10 mg/kg in feed, GK rats
Protocol: At the start of the study, fed glucose was measured at 8 A.M., and animals were selected and sorted into treatment groups based on ambient glucose (n = 10/male GK group, n = 6/male WKY control group). Animals were then placed on diet (LabDiet # 5001) that contained, or was devoid of, compound at the daily doses indicated. Fed blood glucose, food intake, and body weights were determined on days 0, 1, 3, 7, and 14 of study at 8 A.M. On days 7 and 14, food was removed for 5 h and plasma glucose was measured. Percent inhibitions were calculated as the percent reduction of blood glucose from the average value for vehicle controls. On day 14, blood was collected from the tail vein (20 μl) after the morning glucose measurement and after 5 h fast from a subset of n = 3 rats per treatment group to determine the ambient and fasted exposure of the compounds in circulation. The blood was stored at 4°C in 0.1 M sodium monocitrate for subsequent analysis. Animals were then re-fed their respective diet treatments. On day 20 of treatment at 8 A.M., blood glucose was measured and then animals were euthanized via CO2 asphyxiation. Blood and liver tissue were sampled, processed, and stored at -80°C until analysis.

GK rats [4] = test: GK rat chronic efficacy, compound in feed for 20 days; assay type: in vivo; settings: Day 7, ~6 hrs after food removal; 10mpk; chronic study; individual animals; 10 mg/kg
[5] = 10 mpk, following 20 days of treatment in the GK rat, individual animals

## O=C(O)c1ncccc1S [3-MPA, reference compound]
[1]
  effect on gluconeogenesis in the perfused liver: marked acute reductions

## CCOC(=O)[C@H](C)NP(=O)(N[C@@H](C)C(=O)OCC)c1ccc(-c2nc(N)sc2CC(C)C)o1 [CS917, reference compound]
[1]
  effect on gluconeogenesis in the perfused liver: marked acute reductions

## COc1ccc(F)c(-c2ccc(COc3cccc([C@@H](CC(=O)O)C4CC4)c3)cc2C2=CCCC2(C)C)c1 [AM1638, reference compound]
Rat GPR40 (FFAR1); Concentration 1e-6 M
  Receptor Activation (%): 370%
Rat GPR40 (FFAR1); Concentration 1.50E-11 M
  Receptor Activation (%): -18%
Rat GPR40 (FFAR1); Concentration 1.56E-08 M
  Receptor Activation (%): 132%
Rat GPR40 (FFAR1); Concentration 2.44E-10 M
  Receptor Activation (%): 11%
Rat GPR40 (FFAR1); Concentration 2.50E-07 M
  Receptor Activation (%): 361%
Rat GPR40 (FFAR1); Concentration 3.91E-09 M
  Receptor Activation (%): 23%
Rat GPR40 (FFAR1); Concentration 4.00E-12 M
  Receptor Activation (%): -6%
Rat GPR40 (FFAR1); Concentration 6.10E-11 M
  Receptor Activation (%): 2%
Rat GPR40 (FFAR1); Concentration 6.25E-08 M
  Receptor Activation (%): 275%
Rat GPR40 (FFAR1); Concentration 9.77E-10 M
  Receptor Activation (%): 18%

## Cc1cc(OCCCS(C)(=O)=O)cc(C)c1-c1cccc(COc2ccc3c(c2)OC[C@H]3CC(=O)O)c1 [TAK-875, Fasiglifam]
Diabetic humans
  effect on oral glucose tolerance, fasted plasma glucose, and hemoglobin HbA1C: significant reductions

## CN(CCOc1ccc(CC2SC(=O)NC2=O)cc1)c1ccccn1 (stereo not shown) [Rosiglitazone, reference compound]
GK rats [2]; 10 mg/kg in feed, GK rats
  effect on body weight: steady increase in body weight
  effect on food intake: significant and consistent increase in food consumption beginning on day 3
GK rats [2]; [5]
  % HBA1c: 4.4% and 4.2% and 4.3% and 4.7%
  Liver Triglycerides: 5.5 mg/g tissue and 8.7 mg/g tissue and 7.2 mg/g tissue and 5 mg/g tissue and 3.9 mg/g tissue and 6.1 mg/g tissue and 3.1 mg/g tissue
GK rats [2]; Day 7, 10mpk, individual animals, 10 mg/kg
  Fasted plasma insulin: 64.4 pg/mL and 7.9 pg/mL and 28.0 pg/mL and 0.0 pg/mL and 126.7 pg/mL and 13.3 pg/mL and 40.2 pg/mL and 147.0 pg/mL and 54.7 pg/mL
GK rats [2]; Day 14, 10mpk, individual animals, 10 mg/kg
  Fasted plasma insulin: 82.7 pg/mL and 67.8 pg/mL and 78.9 pg/mL and 214.4 pg/mL and 804.3 pg/mL and 809.3 pg/mL and 0.0 pg/mL and 890.8 pg/mL and 292.0 pg/mL
GK rats [2]; Day 0 (start of study), individual GK rats
  Morning (fed) Blood Glucose: 195 mg/dL and 181 mg/dL and 219 mg/dL and 203 mg/dL and 204 mg/dL and 243 mg/dL and 186 mg/dL and 233 mg/dL and 191 mg/dL and 282 mg/dL
GK rats [2]; Day 1, individual GK rats
  Morning (fed) Blood Glucose: 211 mg/dL and 175 mg/dL and 218 mg/dL and 246 mg/dL and 213 mg/dL and 240 mg/dL and 207 mg/dL and 205 mg/dL and 198 mg/dL and 275 mg/dL
GK rats [2]; Day 3, individual GK rats
  Morning (fed) Blood Glucose: 129 mg/dL and 177 mg/dL and 163 mg/dL and 175 mg/dL and 172 mg/dL and 174 mg/dL and 242 mg/dL
GK rats [2]; Day 7, individual GK rats
  Morning (fed) Blood Glucose: 135 mg/dL and 125 mg/dL and 137 mg/dL and 118 mg/dL and 123 mg/dL
GK rats [2]; Day 14, individual GK rats
  Morning (fed) Blood Glucose: 133 mg/dL and 134 mg/dL and 121 mg/dL and 132 mg/dL
GK rats [2]; Day 20, individual GK rats
  Morning (fed) Blood Glucose: 126 mg/dL and 133 mg/dL and 128 mg/dL and 129 mg/dL and 127 mg/dL and 123 mg/dL
GK rats [2]; Rosi @ 10, 20 days of treatment, individual GK rats
  NEFA (mEq/L): 0.32 mEq/L and 0.33 mEq/L and 0.35 mEq/L and 0.75 mEq/L and 0.49 mEq/L and 0.54 mEq/L and 0.48 mEq/L and 0.39 mEq/L and 0.65 mEq/L
GK rats [2]; day 3, 10 mg/kg in feed, GK rats, p < 0.05
  decrease in fed glucose vs. vehicle: 22%
GK rats [2]; day 7, 5 hr fast, 10 mg/kg in feed, GK rats
  reduction in fasting blood glucose vs. vehicle: 16%
GK rats [2]; day 14, 5 hr fast, 10 mg/kg in feed, GK rats
  reduction in fasting blood glucose vs. vehicle: 19%
GK rats [2]; day 20, 10 mg/kg in feed, GK rats, mean ± SEM, vehicle 0.37 ± 0.03, not significant
  plasma NEFA: 0.48 ± 0.05 mEq/L
GK rats [2]; day 20, GK rats, all treatment groups
  effect on circulating HbA1C levels: significantly reduced
GK rats [2]; day 20, GK rats, vs. vehicle controls
  effect on liver triglyceride levels: significant decrease
GK rats [2]; days 7 and 14, 5 hr fast, GK rats
  effect on fasted plasma insulin: no significant effects
GK rats [2]; second block of the table (day 14 per title), 10mpk, individual animals, 10 mg/kg
  Fasted blood glucose: 124 mg/dl and 131 mg/dl (2×) and 114 mg/dl and 133 mg/dl and 134 mg/dl
[3]; day 14, fasted time point
  plasma exposure: ~0.7 µM
[3]; day 14, fed time point
  plasma exposure: ~ 3 μM
GK rats [4]
  Fasted blood glucose: 109 mg/dL and 132 mg/dL and 121 mg/dL and 119 mg/dL and 134 mg/dL and 110 mg/dL and 115 mg/dL and 116 mg/dL
